Reference: US20250011311A1, “AMIDO HETEROAROMATIC COMPOUNDS” (AstraZeneca AB, priority 2022, published 2025)

Experiments:
[1] = molecular target: recombinant 17bHSD4 (M1-N311) (Homo sapiens (Human), UniProt P51659); assay: In Vitro 17bHSD4 Enzyme Assay; type: biochemical; conditions: 40 nM 17bHSD4, 0.125 mM NAD, 15 μM Estradiol, 1.5 h; NADH fluorescence; read-out: 17HSD17b4 Enzyme assay IC50
[2] = molecular target: recombinant 17bHSD13 (N2-K300) (Homo sapiens (Human), UniProt Q7Z5P4); assay: In Vitro 17bHSD13 Enzyme Assay; type: biochemical; conditions: 80 nM 17bHSD13, 0.5 mM NAD, 20 μM Estradiol, 2.5 h; estradiol to estrone by LC-MS/MS
Chain of recombinant 17bHSD13 (N2-K300) (Q7Z5P4 2-300): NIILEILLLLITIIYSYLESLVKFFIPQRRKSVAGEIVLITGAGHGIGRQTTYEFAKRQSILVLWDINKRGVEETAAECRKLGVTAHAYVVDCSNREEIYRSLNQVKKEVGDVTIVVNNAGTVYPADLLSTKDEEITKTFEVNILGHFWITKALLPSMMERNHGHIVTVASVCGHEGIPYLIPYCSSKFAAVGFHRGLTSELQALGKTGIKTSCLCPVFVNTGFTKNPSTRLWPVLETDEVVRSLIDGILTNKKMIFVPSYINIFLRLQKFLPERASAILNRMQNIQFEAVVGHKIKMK
Procedure, shortened: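 Human 17bHSD13 (N2-K300, 80 nM) with 0.5 mM NAD, 20 μM estradiol and varied compound in 50 mM Tris-Cl pH 7.4, 5 mM EDTA, 0.01% DDM. Estrone/(estrone+estradiol) ratio read by LC-MS/MS (APCI, positive MRM). Inhibition normalised to DMSO and a known-inhibitor control; IC50 from curve fit.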

Chain of recombinant 17bHSD4 (M1-N311) (P51659 1-311): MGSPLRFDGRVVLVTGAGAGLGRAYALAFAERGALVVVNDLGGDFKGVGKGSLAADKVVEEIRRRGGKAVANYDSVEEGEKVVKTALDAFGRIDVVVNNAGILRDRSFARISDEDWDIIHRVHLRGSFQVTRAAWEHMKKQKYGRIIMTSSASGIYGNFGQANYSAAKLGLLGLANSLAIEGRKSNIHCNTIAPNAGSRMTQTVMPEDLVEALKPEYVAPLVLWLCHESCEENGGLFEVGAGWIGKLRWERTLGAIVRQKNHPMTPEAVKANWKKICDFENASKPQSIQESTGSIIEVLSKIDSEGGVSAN

Row | Structure (SMILES) | IC50 [1] | IC50 [2]
1 | O=C(c1noc(-c2cc(F)c(F)c(O)c2F)n1)N1CC(Oc2ccccc2)C1 [Example 2, (3-Phenoxyazetidin-1-yl)(5-(2,4,5-trifluoro-3-hydroxyphenyl)-1,2,4-oxadiazol-3-yl)methanone] | 6700 nM | 75 nM
2 | O=C(c1noc(-c2cc(C(F)(F)F)[nH]c(=O)c2)n1)N1CCC(c2ccccc2)C1 (stereo not shown) [Example 9, 4-(3-(3-Phenylpyrrolidine-1-carbonyl)-1,2,4-oxadiazol-5-yl)-6-(trifluoromethyl)pyridin-2(1H)-one] | > 50000 nM | 422 nM
3 | N#Cc1c(C(=O)N2CCN(CCCOc3ccc(F)cc3)CC2)noc1-c1cc(F)c(F)c(O)c1F [Example 14, 3-(4-(3-(4-Fluorophenoxy)propyl)piperazine-1-carbonyl)-5-(2,4,5-trifluoro-3-hydroxyphenyl)isoxazole-4-carbonitrile] | 41400 nM | 126 nM
4 | N#Cc1c(C(=O)N2Cc3ccc(F)cc3C2)noc1-c1cc(F)c(F)c(O)c1F [Example 18, 3-(5-Fluoroisoindoline-2-carbonyl)-5-(2,4,5-trifluoro-3-hydroxyphenyl)isoxazole-4-carbonitrile] | 17800 nM | 80 nM
5 | C[C@@H]1CN(C(=O)c2noc(-c3cc(F)c(F)c(O)c3F)c2C#N)C[C@H](C)O1 [Example 22, 3-((2R,6S)-2,6-Dimethylmorpholine-4-carbonyl)-5-(2,4,5-trifluoro-3-hydroxyphenyl)isoxazole-4-carbonitrile] | > 50000 nM | 532 nM
6 | N#Cc1ccc2c(c1)CN(C(=O)c1noc(-c3cc(F)c(F)c(O)c3F)c1C#N)CC2 [Example 29, 3-(7-Cyano-1,2,3,4-tetrahydroisoquinoline-2-carbonyl)-5-(2,4,5-trifluoro-3-hydroxyphenyl)isoxazole-4-carbonitrile] | 17600 nM | 157 nM
7 | N#Cc1cccc2c1CCN(C(=O)c1noc(-c3c(F)c(O)c(F)c(F)c3Br)n1)C2 [Example 30, 2-(5-(2-Bromo-3,4,6-trifluoro-5-hydroxyphenyl)-1,2,4-oxadiazole-3-carbonyl)-1,2,3,4-tetrahydroisoquinoline-5-carbonitrile] | 17200 nM | 61 nM
8 | CC1(C)CN(C(=O)c2noc(-c3cc(F)c(F)c(O)c3F)n2)CC(C)(C)O1 [Example 32, (2,2,6,6-Tetramethylmorpholino)(5-(2,4,5-trifluoro-3-hydroxyphenyl)-1,2,4-oxadiazol-3-yl)methanone] | > 50000 nM | 159 nM
9 | O=C(c1ccc(-c2cc(F)c(F)c(O)c2F)s1)N1CC[C@H](c2ccccc2)C1 [Example 33, (R)-(3-Phenylpyrrolidin-1-yl)(5-(2,4,5-trifluoro-3-hydroxyphenyl)thiophen-2-yl)methanone] | 8500 nM | 34 nM
10 | C[C@@H]1CC[C@H](C)N1C(=O)c1noc(-c2cc(F)c(F)c(O)c2F)n1 [Example 38, ((2R,5S)-2,5-Dimethylpyrrolidin-1-yl)(5-(2,4,5-trifluoro-3-hydroxyphenyl)-1,2,4-oxadiazol-3-yl)methanone] | 24000 nM | 207 nM
11 | O=C(c1noc(-c2cc(F)c(F)c(O)c2F)n1)N1CCOC2CCCC21 (stereo not shown) [Example 41, (Hexahydrocyclopenta[b][1,4]oxazin-4(4aH)-yl)(5-(2,4,5-trifluoro-3-hydroxyphenyl)-1,2,4-oxadiazol-3-yl)methanone] | > 50000 nM | 82 nM
12 | O=C(c1noc(-c2cc(F)c(F)c(O)c2F)n1)N1CC2CCC(C1)C2(F)F [Example 43, (8,8-difluoro-3-azabicyclo[3.2.1]octan-3-yl)(5-(2,4,5-trifluoro-3-hydroxyphenyl)-1,2,4-oxadiazol-3-yl)methanone] | 39000 nM | 339 nM
13 | C[C@@H]1CN(C(=O)c2noc(-c3cc(F)c(F)c(O)c3F)n2)[C@H](C)CO1 [Example 50, ((2R,5R)-2,5-Dimethylmorpholino)(5-(2,4,5-trifluoro-3-hydroxyphenyl)-1,2,4-oxadiazol-3-yl)methanone] | > 50000 nM | 499 nM
14 | C[C@@H]1CN(C(=O)c2noc(-c3cc(F)c(F)c(O)c3F)n2)C[C@@H](C)O1 [Example 88, ((2R,6R)-2,6-Dimethylmorpholino)(5-(2,4,5-trifluoro-3-hydroxyphenyl)-1,2,4-oxadiazol-3-yl)methanone] | 36400 nM | 468 nM
15 | O=C(c1noc(-c2cc(F)c(F)c(O)c2F)n1)N1CC[C@H](Oc2ccccc2)C1 [Example 93, (S)-(3-Phenoxypyrrolidin-1-yl)(5-(2,4,5-trifluoro-3-hydroxyphenyl)-1,2,4-oxadiazol-3-yl)methanone] | 22200 nM | 63 nM

More lines, now with the values ahead:

Row | IC50 [1] | IC50 [2] | Structure (SMILES)
16 | 15400 nM | 137 nM | COc1cccc(N2CCN(C(=O)c3noc(-c4cc(F)c(F)c(O)c4F)c3C#N)CC2)c1 [Example 16, 3-(4-(3-Methoxyphenyl)piperazine-1-carbonyl)-5-(2,4,5-trifluoro-3-hydroxyphenyl)isoxazole-4-carbonitrile]
17 | 11500 nM | 165 nM | N#Cc1ccc2c(c1)CCN(C(=O)c1noc(-c3cc(F)c(F)c(O)c3F)n1)C2 [Example 31, 2-(5-(2,4,5-Trifluoro-3-hydroxyphenyl)-1,2,4-oxadiazole-3-carbonyl)-1,2,3,4-tetrahydroisoquinoline-6-carbonitrile]
18 | 47400 nM | 183 nM | CC(C)CC1CN(C(=O)c2noc(-c3cc(F)c(F)c(O)c3F)n2)CCO1 (stereo not shown) [Example 47, (2-Isobutylmorpholino)(5-(2,4,5-trifluoro-3-hydroxyphenyl)-1,2,4-oxadiazol-3-yl)methanone]
19 | 32300 nM | 88 nM | O=C(c1noc(-c2cc(F)c(F)c(O)c2F)n1)N1CCN(CCCOc2ccc(F)cc2)CC1 [Example 57, (4-(3-(4-Fluorophenoxy)propyl)piperazin-1-yl)(5-(2,4,5-trifluoro-3-hydroxyphenyl)-1,2,4-oxadiazol-3-yl)methanone]
20 | 4000 nM | 79 nM | Cn1nnc(-c2cnc(N3CCN(C(=O)c4noc(-c5cc(F)c(F)c(O)c5F)n4)CC3)c(Cl)c2)n1 [Example 67, (4-(3-Chloro-5-(2-methyl-2H-tetrazol-5-yl)pyridin-2-yl)piperazin-1-yl)(5-(2,4,5-trifluoro-3-hydroxyphenyl)-1,2,4-oxadiazol-3-yl)methanone]
21 | 48700 nM | 131 nM | O=C(c1noc(-c2cc(F)c(F)c(O)c2F)n1)N1CCN(CCOc2ccc(Br)cn2)CC1 [Example 69, (4-(2-((5-Bromopyridin-2-yl)oxy)ethyl)piperazin-1-yl)(5-(2,4,5-trifluoro-3-hydroxyphenyl)-1,2,4-oxadiazol-3-yl)methanone]
22 | 21100 nM | 89 nM | O=C(c1noc(-c2cc(F)c(F)c(O)c2F)n1)N1CC(c2ccc(F)cc2)C1 [Example 74, (3-(4-Fluorophenyl)azetidin-1-yl)(5-(2,4,5-trifluoro-3-hydroxyphenyl)-1,2,4-oxadiazol-3-yl)methanone]
23 | 44800 nM | 128 nM | CCCC1CCN(C(=O)c2noc(-c3cc(F)c(F)c(O)c3F)n2)C1 (stereo not shown) [Example 76, (3-Propylpyrrolidin-1-yl)(5-(2,4,5-trifluoro-3-hydroxyphenyl)-1,2,4-oxadiazol-3-yl)methanone]
